Reference: ChEMBL document CHEMBL3045920, “Antifeedant activity of some diterpenoids” (1999)

What was measured:
Format in all cases: functional
[1] = system: Henosepilachna vigintioctopunctata; assay: Antifeedant activity against fourth-instar nymphs of Henosepilachna vigintioctopunctata at 0.5 mg/cm'2 after 4 hr
[2] = system: Henosepilachna vigintioctopunctata; assay: Antifeedant activity against fourth-instar nymphs of Henosepilachna vigintioctopunctata at 5 mg/cm'2 after 4 hr
[3] = system: Henosepilachna vigintioctopunctata; assay: Antifeedant activity against adults of Henosepilachna vigintioctopunctata at 0.5 mg/cm'2 after 4 hr
[4] = system: Henosepilachna vigintioctopunctata; assay: Antifeedant activity against fourth-instar nymphs of Henosepilachna vigintioctopunctata at 0.05 mg/cm'2 after 4 hr
[5] = system: Henosepilachna vigintioctopunctata; assay: Antifeedant activity against adults of Henosepilachna vigintioctopunctata at 0.05 mg/cm'2 after 4 hr
[6] = system: Henosepilachna vigintioctopunctata; assay: Antifeedant activity against adults of Henosepilachna vigintioctopunctata at 5 mg/cm'2 after 4 hr

**Q.** What does the source list for `CC(=O)OC[C@@]12C=C[C@@H](C)[C@](C)([C@@H]3C[C@H]4C(OC(C)=O)CO[C@H]4O3)[C@H]1CC[C@H](OC(C)=O)[C@]21CO1` (stereo partly specified)?
**A.** Activity [1]: -1.39%; Activity [2]: 1.28%; Activity [3]: 22.53%; Activity [4]: -18.69%; Activity [5]: -20.26%; Activity [6]: 23.45%

**Q.** Which Activity [1] does the source give for `CC(=O)OC[C@@]12[C@@H](OC(C)=O)C[C@@H](C)[C@](C)([C@@H]3C[C@H]4C=CO[C@H]4O3)[C@H]1CC[C@H](OC(C)=O)[C@]21CO1` [3-EPICARYOPTIN] here?
**A.** Its Activity is 9.37%.

**Q.** What about the Activity [2] of the same compound?
**A.** Its Activity is 23.56%.

**Q.** What about the Activity [3] of the same compound?
**A.** Its Activity is 37.02%.

**Q.** And the Activity [4]?
**A.** The Activity was 16.12%.

**Q.** And the Activity [5]?
**A.** The Activity was 31.07%.

**Q.** And the Activity [6]?
**A.** Its Activity is 31.93%.

**Q.** How did the Activity [1] turn out when `CC(=O)OC[C@@]12[C@@H](OC(C)=O)C[C@@H](C)[C@](C)([C@@H]3C[C@@H]4CCO[C@H]4O3)[C@H]1CC[C@H](OC(C)=O)[C@]21CO1` [14,15-DIHYDRO-3-EPICARYOPTIN] was run?
**A.** The Activity was 20.39%.

**Q.** And the Activity [2]?
**A.** The Activity was 39.2%.

**Q.** What about the Activity [3] of the same compound?
**A.** Its Activity is 8.39%.

**Q.** And the Activity [4]?
**A.** The Activity was 21.14%.

**Q.** And the Activity [5]?
**A.** Its Activity is 10.2%.

**Q.** And the Activity [6]?
**A.** The Activity was 39.34%.

**Q.** With `C=C1CC[C@@H]2[C@](C)(CO)[C@H](O)CC[C@@]2(C)[C@@H]1C/C=C1/C(=O)OC[C@H]1O` [ANDROGRAPHOLIDE] as the compound, how does the Activity [1] read?
**A.** The Activity was -52.38%.

**Q.** And the Activity [2]?
**A.** The Activity was 54.06%.

**Q.** What about the Activity [3] of the same compound?
**A.** Its Activity is 1.04%.

**Q.** What about the Activity [4] of the same compound?
**A.** Its Activity is -16.76%.

**Q.** And the Activity [5]?
**A.** Its Activity is -10.95%.

**Q.** And the Activity [6]?
**A.** The Activity was 24.26%.

**Q.** Which Activity [1] does the source give for `CC(=O)OC[C@@]12[C@@H](OC(C)=O)C[C@@H](C)[C@](C)([C@@H]3C[C@H]4C=CO[C@H]4O3)[C@H]1CC[C@@H](OC(C)=O)[C@]21CO1` [CARYOPTIN] here?
**A.** The Activity was 72.51%.

**Q.** And the Activity [2]?
**A.** Its Activity is 44.46%.

**Q.** And the Activity [3]?
**A.** Its Activity is -10.03%.

**Q.** And the Activity [4]?
**A.** The Activity was 34.37%.

**Q.** And the Activity [5]?
**A.** Its Activity is -5.31%.

**Q.** And the Activity [6]?
**A.** Its Activity is 84.95%.

**Q.** With `C[C@@]12CCCC(CO)(CO)[C@H]1CC[C@H](CO)[C@H]2CCC1=CCOC1=O` [WIGHTIONOLIDE] as the compound, how does the Activity [1] read?
**A.** The Activity was -14.03%.

**Q.** And the Activity [2]?
**A.** The Activity was -11.72%.

**Q.** And the Activity [3]?
**A.** The Activity was 7.15%.

**Q.** What about the Activity [4] of the same compound?
**A.** Its Activity is -52.79%.

**Q.** And the Activity [5]?
**A.** The Activity was 18.42%.

**Q.** And the Activity [6]?
**A.** Its Activity is -4.1%.
